Source: ChEMBL document CHEMBL3885881, “DrugMatrix”

Organism: Rattus norvegicus
Experiment: DrugMatrix - Regimen: Daily Repeat
Assay type: toxicity, organism-based, Sprague-Dawley
Parameters: regimen Daily Repeat, gender Male, age 6-8 weeks
Details: in vivo, po, route oral GAVAGE, vehicle 100 % WATER; for ABSOLUTE BASOPHIL / ABSOLUTE EOSINOPHIL / ABSOLUTE LYMPHOCYTE / ABSOLUTE MONOCYTE / ABSOLUTE SEGMENTED NEUTROPHIL / BASOPHIL / EOSINOPHIL / ERYTHROCYTE COUNT / HEMATOCRIT / HEMOGLOBIN / LEUKOCYTE COUNT / LYMPHOCYTE / MEAN CORPUSCULAR HEMOGLOBIN / MEAN CORPUSCULAR HEMOGLOBIN CONCENTRATION / MEAN CORPUSCULAR VOLUME / MONOCYTE / NEUTROPHIL / NUCLEATED RED BLOOD CELLS / PLATELET COUNT: tissue Blood; for ALANINE AMINOTRANSFERASE / ALBUMIN / ALKALINE PHOSPHATASE / ASPARTATE AMINOTRANSFERASE / BLOOD UREA NITROGEN / CARBON DIOXIDE / CHLORIDE / CHOLESTEROL / CREATINE PHOSPHOKINASE / CREATININE / GLUCOSE / LACTATE DEHYDROGENASE / LIPASE / PHOSPHORUS / POTASSIUM / SODIUM / TOTAL BILIRUBIN / TOTAL PROTEIN / URIC ACID: tissue Plasma
[1] = 120 mg/kg, 120 h, dose level Low, time 5 day
[2] = 1200 mg/kg, 72 h, dose level High, time 3 day
[3] = 1200 mg/kg, 120 h, dose level High, time 5 day

CCN(CC)CCNC(=O)c1cc(S(C)(=O)=O)ccc1OC [TIAPRIDE]
ABSOLUTE BASOPHIL [1]: 0 CELLS/uL
ABSOLUTE EOSINOPHIL [1]: 28 CELLS/uL
ABSOLUTE LYMPHOCYTE [1]: 7405.67 CELLS/uL
ABSOLUTE MONOCYTE [1]: 0 CELLS/uL
ABSOLUTE SEGMENTED NEUTROPHIL [1]: 299.67 CELLS/uL
BASOPHIL [1]: 0%
EOSINOPHIL [1]: 0.33%
ERYTHROCYTE COUNT [1]: 5.54 x10E6/uL
HEMATOCRIT [1]: 34.8%
HEMOGLOBIN [1]: 13.1 G/DL
LEUKOCYTE COUNT [1]: 7.73 x10E3/uL
LYMPHOCYTE [1]: 95.67%
MEAN CORPUSCULAR HEMOGLOBIN [1]: 23.67 pg
MEAN CORPUSCULAR HEMOGLOBIN CONCENTRATION [1]: 37.7 G/DL
MEAN CORPUSCULAR VOLUME [1]: 62.73 fL
MONOCYTE [1]: 0%
NEUTROPHIL [1]: 4%
NUCLEATED RED BLOOD CELLS [1]: 0 /100WBC
PLATELET COUNT [1]: 1102.33 x10E3/uL
ALANINE AMINOTRANSFERASE [1]: 42 u/L
ALBUMIN [1]: 4.3 G/DL
ALKALINE PHOSPHATASE [1]: 382 u/L
ASPARTATE AMINOTRANSFERASE [1]: 80.33 u/L
BLOOD UREA NITROGEN [1]: 15.33 mg/dL
CARBON DIOXIDE [1]: 27.67 mmol/L
CHLORIDE [1]: 103 MEQ/L
CHOLESTEROL [1]: 70.67 mg/dL
CREATINE PHOSPHOKINASE [1]: 223.33 u/L
CREATININE [1]: 0.19 mg/dL
GLUCOSE [1]: 142.33 mg/dL
LACTATE DEHYDROGENASE [1]: 132.33 u/L
LIPASE [1]: 8.33 u/L
PHOSPHORUS [1]: 11.83 mg/dL
POTASSIUM [1]: 6.07 MEQ/L
SODIUM [1]: 149.23 MEQ/L
TOTAL BILIRUBIN [1]: 0.27 mg/dL
TOTAL PROTEIN [1]: 6.03 G/DL
URIC ACID [1]: 0.97 mg/dL
ABSOLUTE BASOPHIL [2]: 0 CELLS/uL
ABSOLUTE EOSINOPHIL [2]: 187.33 CELLS/uL
ABSOLUTE LYMPHOCYTE [2]: 11272.67 CELLS/uL
ABSOLUTE MONOCYTE [2]: 0 CELLS/uL
ABSOLUTE SEGMENTED NEUTROPHIL [2]: 806.67 CELLS/uL
BASOPHIL [2]: 0%
EOSINOPHIL [2]: 1.33%
ERYTHROCYTE COUNT [2]: 6.23 x10E6/uL
HEMATOCRIT [2]: 38.93%
HEMOGLOBIN [2]: 14.8 G/DL
LEUKOCYTE COUNT [2]: 12.27 x10E3/uL
LYMPHOCYTE [2]: 92.33%
MEAN CORPUSCULAR HEMOGLOBIN [2]: 23.73 pg
MEAN CORPUSCULAR HEMOGLOBIN CONCENTRATION [2]: 38.03 G/DL
MEAN CORPUSCULAR VOLUME [2]: 62.5 fL
MONOCYTE [2]: 0%
NEUTROPHIL [2]: 6.33%
NUCLEATED RED BLOOD CELLS [2]: 0 /100WBC
PLATELET COUNT [2]: 1394 x10E3/uL
ALANINE AMINOTRANSFERASE [2]: 38 u/L
ALBUMIN [2]: 4.53 G/DL
ALKALINE PHOSPHATASE [2]: 408 u/L
ASPARTATE AMINOTRANSFERASE [2]: 80 u/L
BLOOD UREA NITROGEN [2]: 22.33 mg/dL
CARBON DIOXIDE [2]: 23.33 mmol/L
CHLORIDE [2]: 107 MEQ/L
CHOLESTEROL [2]: 76.33 mg/dL
CREATINE PHOSPHOKINASE [2]: 431 u/L
CREATININE [2]: 0.22 mg/dL
GLUCOSE [2]: 189.67 mg/dL
LACTATE DEHYDROGENASE [2]: 523.33 u/L
LIPASE [2]: 8.33 u/L
PHOSPHORUS [2]: 14.8 mg/dL
POTASSIUM [2]: 6.75 MEQ/L
SODIUM [2]: 147.23 MEQ/L
TOTAL BILIRUBIN [2]: 0.27 mg/dL
TOTAL PROTEIN [2]: 6.37 G/DL
URIC ACID [2]: 1.9 mg/dL
ABSOLUTE BASOPHIL [3]: 0 CELLS/uL
ABSOLUTE EOSINOPHIL [3]: 212 CELLS/uL
ABSOLUTE LYMPHOCYTE [3]: 15513 CELLS/uL
ABSOLUTE MONOCYTE [3]: 0 CELLS/uL
ABSOLUTE SEGMENTED NEUTROPHIL [3]: 1775 CELLS/uL
BASOPHIL [3]: 0%
EOSINOPHIL [3]: 1%
ERYTHROCYTE COUNT [3]: 5.86 x10E6/uL
HEMATOCRIT [3]: 36.5%
HEMOGLOBIN [3]: 13.9 G/DL
LEUKOCYTE COUNT [3]: 17.5 x10E3/uL
LYMPHOCYTE [3]: 89.33%
MEAN CORPUSCULAR HEMOGLOBIN [3]: 23.73 pg
MEAN CORPUSCULAR HEMOGLOBIN CONCENTRATION [3]: 38.1 G/DL
MEAN CORPUSCULAR VOLUME [3]: 62.33 fL
MONOCYTE [3]: 0%
NEUTROPHIL [3]: 9.67%
NUCLEATED RED BLOOD CELLS [3]: 0 /100WBC
PLATELET COUNT [3]: 1226 x10E3/uL
ALANINE AMINOTRANSFERASE [3]: 48.67 u/L
ALBUMIN [3]: 4.17 G/DL
ALKALINE PHOSPHATASE [3]: 452.67 u/L
ASPARTATE AMINOTRANSFERASE [3]: 83.67 u/L
BLOOD UREA NITROGEN [3]: 17.33 mg/dL
CARBON DIOXIDE [3]: 26.33 mmol/L
CHLORIDE [3]: 102.67 MEQ/L
CHOLESTEROL [3]: 66 mg/dL
CREATINE PHOSPHOKINASE [3]: 508.33 u/L
CREATININE [3]: 0.27 mg/dL
GLUCOSE [3]: 161.67 mg/dL
LACTATE DEHYDROGENASE [3]: 191.33 u/L
LIPASE [3]: 8 u/L
PHOSPHORUS [3]: 14.53 mg/dL
POTASSIUM [3]: 6.21 MEQ/L
SODIUM [3]: 146.03 MEQ/L
TOTAL BILIRUBIN [3]: 0.27 mg/dL
TOTAL PROTEIN [3]: 6.03 G/DL
URIC ACID [3]: 1.73 mg/dL
